PubChem BioAssay AID330 (DTP/NCI, 2004)
Where “and” joins values, the source holds several entries; their conditions need not be identical. Identical values can stand only once. Inconclusive results and toxic doses are left out.

Tested on: P388 leukemia ip, CD2F1 mice, survival T/C
Assay: NCI In Vivo Anticancer Drug Screen. Data for tumor model P388 Leukemia (intraperitoneal) in CD2F1 (CDF1) mice
Conditions: endpoint: median survival time, higher = longer survival
Method in brief: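 Mice carrying the transplanted tumor received test compound or vehicle. Survival was recorded in each group, and the value is the treated-group measurement divided by that of the vehicle-treated control group.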

[1] = dose: 50.0 mg/kg/injection, schedule: Q01DX005 (ip), vehicle: saline with Tween-80
[2] = dose: 100.0 mg/kg/injection, schedule: Q01DX005 (ip), vehicle: saline with Tween-80
[3] = dose: 200.0 mg/kg/injection, schedule: Q01DX005 (ip), vehicle: saline with Tween-80
[4] = dose: 50.0 mg/kg/injection, schedule: Q01DX009 (ip), vehicle: saline with Tween-80
[5] = dose: 50.0 mg/kg/injection, schedule: Q01DX009 (ip), vehicle: saline
[6] = dose: 100.0 mg/kg/injection, schedule: Q01DX009 (ip), vehicle: saline
[7] = dose: 200.0 mg/kg/injection, schedule: Q01DX009 (ip), vehicle: saline
[8] = dose: 25.0 mg/kg/injection, schedule: Q01DX009 (ip), vehicle: Klucel (hydroxypropylcellulose) (HPC)
[9] = dose: 50.0 mg/kg/injection, schedule: Q01DX009 (ip), vehicle: Klucel (hydroxypropylcellulose) (HPC)
[10] = dose: 100.0 mg/kg/injection, schedule: Q01DX009 (ip), vehicle: Klucel (hydroxypropylcellulose) (HPC)
[11] = dose: 200.0 mg/kg/injection, schedule: Q01DX009 (ip), vehicle: Klucel (hydroxypropylcellulose) (HPC)
[12] = dose: 50.0 mg/kg/injection, schedule: Q01DX005 (ip), vehicle: Klucel (hydroxypropylcellulose) (HPC)
[13] = dose: 100.0 mg/kg/injection, schedule: Q01DX005 (ip), vehicle: Klucel (hydroxypropylcellulose) (HPC)
[14] = dose: 200.0 mg/kg/injection, schedule: Q01DX005 (ip), vehicle: Klucel (hydroxypropylcellulose) (HPC)

## CCC(=O)Nc1ccc(C(=O)C(C)=O)cc1
dose: 8.0 mg/kg/injection, schedule: Q01DX009 (ip), vehicle: saline with Tween-80
  T/C: 104 % of control
dose: 16.0 mg/kg/injection, schedule: Q01DX009 (ip), vehicle: saline with Tween-80
  T/C: 104 % of control
dose: 32.0 mg/kg/injection, schedule: Q01DX009 (ip), vehicle: saline with Tween-80
  T/C: 99 % of control

## O=C1C(CO)NC(=S)N1c1ccccc1 (centres undefined)
dose: 12.5 mg/kg/injection, schedule: Q01DX001 (ip), vehicle: saline with Tween-80
  T/C: 109 % of control
dose: 25.0 mg/kg/injection, schedule: Q01DX001 (ip), vehicle: saline with Tween-80
  T/C: 102 % of control
dose: 50.0 mg/kg/injection, schedule: Q01DX001 (ip), vehicle: saline with Tween-80
  T/C: 97 % of control
dose: 100.0 mg/kg/injection, schedule: Q01DX001 (ip), vehicle: saline with Tween-80
  T/C: 105 % of control
dose: 200.0 mg/kg/injection, schedule: Q01DX001 (ip), vehicle: saline with Tween-80
  T/C: 102 % of control

## CCOC(=O)C1CC1C1=C(C)c2cc3[n-]c(cc4nc(cc5[n-]c(cc1n2)c(C)c5CCC(=O)OC)C(CCC(=O)OC)=C4C)c(C)c3C1CC1C(=O)OCC.[Zn+2] (centres undefined)
[1]
  T/C: 95 % of control
[2]
  T/C: 89 % of control
[3]
  T/C: 89 % of control

## CCN(CC)CCCCNc1ccc(NCCCCN(CC)CC)c2c1C(=O)c1ccccc1C2=O
dose: 3.12 mg/kg/injection, schedule: Q01DX009 (ip), vehicle: saline
  T/C: 90 % of control
dose: 6.25 mg/kg/injection, schedule: Q01DX009 (ip), vehicle: saline
  T/C: 90 % of control
dose: 12.5 mg/kg/injection, schedule: Q01DX009 (ip), vehicle: saline with Tween-80
  T/C: 118 % of control
dose: 12.5 mg/kg/injection, schedule: Q01DX009 (ip), vehicle: saline
  T/C: 97 % of control
dose: 25.0 mg/kg/injection, schedule: Q01DX009 (ip), vehicle: saline with Tween-80
  T/C: 115 % of control
[4]
  T/C: 120 % of control
[5]
  T/C: 91 % of control
[6]
  T/C: 100 % of control

## Cc1cc2[nH]c(Cl)c(/C=N/Nc3ccccc3[N+](=O)[O-])c2cc1O
dose: 50.0 mg/kg/injection, schedule: Q01DX001 (ip), vehicle: Klucel (hydroxypropylcellulose) (HPC)
  T/C: 96 % of control
dose: 100.0 mg/kg/injection, schedule: Q01DX001 (ip), vehicle: Klucel (hydroxypropylcellulose) (HPC)
  T/C: 99 % of control
dose: 200.0 mg/kg/injection, schedule: Q01DX001 (ip), vehicle: Klucel (hydroxypropylcellulose) (HPC)
  T/C: 90 % of control and 96 % of control

## CCCCCCC(/C=C/c1ccc(Cl)c(Cl)c1)=N\NC(=O)C(N)=O
[5]
  T/C: 101 % of control
[6]
  T/C: 101 % of control
[7]
  T/C: 110 % of control

## Cc1cc(NCCCNCCCNc2cc(C)nc3cc(N)ccc23)c2ccc(N)cc2n1
dose: 12.5 mg/kg/injection, schedule: Q01DX009 (ip), vehicle: other
  T/C: 160 % of control

## COc1cc(CC2C(CO)OC(=O)C2Cc2ccc3c(c2)OCO3)cc(OC)c1OC (centres undefined)
dose: 50.0 mg/kg/injection, schedule: Q04DX002 (ip), vehicle: acetone
  T/C: 98 % of control
dose: 100.0 mg/kg/injection, schedule: Q04DX002 (ip), vehicle: acetone
  T/C: 98 % of control
dose: 200.0 mg/kg/injection, schedule: Q04DX002 (ip), vehicle: acetone
  T/C: 98 % of control

## COC1/C=C/OC2(C)Oc3c(C)c(O)c4c(O)c(c5c(nc(-c6ccco6)n5-c5ccccc5)c4c3C2=O)NC(=O)/C(C)=C\C=C\C(C)C(O)C(C)C(O)C(C)C(OC(C)=O)C1C (centres undefined)
[8]
  T/C: 89 % of control
[9]
  T/C: 95 % of control
[10]
  T/C: 95 % of control
[11]
  T/C: 93 % of control

## O=C(c1ccc(Cl)cc1)N1CCN(C(=O)N2CCN(C(=O)N3CCN(C(=O)c4ccc(Cl)cc4)CC3)CC2)CC1
dose: 3.75 mg/kg/injection, schedule: Q01DX005 (ip), vehicle: saline with Tween-80
  T/C: 99 % of control
dose: 7.5 mg/kg/injection, schedule: Q01DX005 (ip), vehicle: saline with Tween-80
  T/C: 99 % of control
dose: 15.0 mg/kg/injection, schedule: Q01DX005 (ip), vehicle: saline with Tween-80
  T/C: 100 % of control
dose: 30.0 mg/kg/injection, schedule: Q01DX005 (ip), vehicle: saline with Tween-80
  T/C: 89 % of control
dose: 60.0 mg/kg/injection, schedule: Q01DX005 (ip), vehicle: saline with Tween-80
  T/C: 92 % of control
dose: 240.0 mg/kg/injection, schedule: Q01DX005 (ip), vehicle: saline with Tween-80
  T/C: 89 % of control

## CCCOC(=O)c1ccccc1OP(=O)(N(C)C)N(C)C
dose: 50.0 mg/kg/injection, schedule: Q01DX005 (ip), vehicle: saline
  T/C: 93 % of control
dose: 100.0 mg/kg/injection, schedule: Q01DX005 (ip), vehicle: saline
  T/C: 98 % of control
dose: 200.0 mg/kg/injection, schedule: Q01DX005 (ip), vehicle: saline
  T/C: 108 % of control

## Cc1ccc2c(c1)sc1nc(C)cc(=O)n12
dose: 10.0 mg/kg/injection, schedule: Q04DX002 (ip), vehicle: Klucel (hydroxypropylcellulose) (HPC)
  T/C: 106 % of control
dose: 20.0 mg/kg/injection, schedule: Q04DX002 (ip), vehicle: Klucel (hydroxypropylcellulose) (HPC)
  T/C: 97 % of control
dose: 40.0 mg/kg/injection, schedule: Q04DX002 (ip), vehicle: Klucel (hydroxypropylcellulose) (HPC)
  T/C: 95 % of control

## C=C(C)C12CC(C)C34OC5(OC1C3C1OC1(CO)C(O)C1(O)C(OC(=O)c3ccccc3)C(C)C(C(C)CCCCCCC5O)C14)O2 (centres undefined)
dose: 1.9 micrograms/kg/injection, schedule: Q01DX009 (ip), vehicle: distilled water + alcohol
  T/C: 102 % of control
dose: 3.8 micrograms/kg/injection, schedule: Q01DX009 (ip), vehicle: distilled water + alcohol
  T/C: 115 % of control
dose: 7.5 micrograms/kg/injection, schedule: Q01DX009 (ip), vehicle: distilled water + alcohol
  T/C: 120 % of control
dose: 30.0 micrograms/kg/injection, schedule: Q01DX009 (ip), vehicle: distilled water + alcohol
  T/C: 152 % of control

## Cc1ccc(C(O)(c2ccc(C)cc2)C2(O)CCCCC2)cc1
[1]
  T/C: 109 % of control
[2]
  T/C: 100 % of control
[3]
  T/C: 101 % of control

## OCCC(CCN1CCOCC1)(c1ccccc1)C1(O)CCCC1 (centres undefined)
dose: 60.0 mg/kg/injection, schedule: Q01DX005 (ip), vehicle: saline
  T/C: 95 % of control
dose: 120.0 mg/kg/injection, schedule: Q01DX005 (ip), vehicle: saline
  T/C: 98 % of control
dose: 240.0 mg/kg/injection, schedule: Q01DX005 (ip), vehicle: saline
  T/C: 92 % of control

## CN1C2(c3ccccc3)OC(=O)C1(c1ccccc1)C1C(=O)C3C4c5ccccc5C(c5ccccc54)C3C(=O)C12 (centres undefined)
[9]
  T/C: 94 % of control
[10]
  T/C: 100 % of control
[11]
  T/C: 94 % of control

## CCOC(CNC(C)c1ccc2cc(OC)c(OC)cc2c1)OCC (centres undefined)
[8]
  T/C: 100 % of control
[9]
  T/C: 114 % of control
[10]
  T/C: 116 % of control
[11]
  T/C: 121 % of control

## CN1C(=O)NC2(C1=O)C(=O)N(C)C(=O)N2C (centres undefined)
[5]
  T/C: 91 % of control
[6]
  T/C: 92 % of control
[7]
  T/C: 95 % of control

## Cc1ccc(Cl)cc1NS(=O)(=O)c1ccc(Br)cc1
dose: 100.0 mg/kg/injection, schedule: Q04DX003 (ip), vehicle: saline with Tween-80
  T/C: 100 % of control
dose: 200.0 mg/kg/injection, schedule: Q04DX003 (ip), vehicle: saline with Tween-80
  T/C: 100 % of control
dose: 400.0 mg/kg/injection, schedule: Q04DX003 (ip), vehicle: saline with Tween-80
  T/C: 104 % of control

## CCCCC1(CCN(CC)c2ccccc2)C(=O)NC(=O)NC1=O
[12]
  T/C: 101 % of control
[13]
  T/C: 99 % of control
[14]
  T/C: 99 % of control

## CC(=O)Oc1cccnc1C(C#N)C#N
dose: 12.5 mg/kg/injection, schedule: Q01DX005 (ip), vehicle: saline with Tween-80
  T/C: 108 % of control
dose: 25.0 mg/kg/injection, schedule: Q01DX005 (ip), vehicle: saline with Tween-80
  T/C: 94 % of control

## Cc1ncn[nH]1
[6]
  T/C: 103 % of control
[7]
  T/C: 106 % of control
dose: 400.0 mg/kg/injection, schedule: Q01DX009 (ip), vehicle: saline
  T/C: 100 % of control

## O=C1Nc2ccc3cn[nH]c3c2C1=O
[1]
  T/C: 98 % of control
[2]
  T/C: 101 % of control
[3]
  T/C: 105 % of control

## CC1OC(=O)/C(=C\N(C)C)C1=O (centres undefined)
[12]
  T/C: 105 % of control
[13]
  T/C: 111 % of control
[14]
  T/C: 109 % of control

## O=C1c2cccc3c2C2(O)c4c1cccc4C(=O)c1cccc(c12)C3=O
[4]
  T/C: 100 % of control
dose: 100.0 mg/kg/injection, schedule: Q01DX009 (ip), vehicle: saline with Tween-80
  T/C: 90 % of control
